# Like-named read-outs stand apart in the source and are kept apart here. Non-standard residues stand in square brackets, D forms with d. Residues, ends and D or L forms follow the SMILES beside them. *: point of attachment. Sta = CC(C)C[C@H](N)[C@@H](O)CC(=O)O; Isovaleryl = CC(C)CC(=O)*
# Legend:
# C. albicans ATCC 32354 [1] = assay: Mortality after intravenous challenge; assay type: in vivo, mice
# Experimental: Female Swiss Webster mice (n=10 per treatment group) were challenged by tail vein injection with 10^6 c.f.u. Candida albicans ATCC 32354 in 0.2 ml saline and mortality was monitored over the following 14 days. Three hr prior to challenge with candida, and on days 1 to 5 post challenge with candida, mice also received one of the following compounds (i.p. in saline): saline alone; 0.6 mgKg^-1 pepstatin A, or 1 mgKg^-1 amphotericin B. Challenge inoculum containing C. albicans was prepared in the same manner as used for airway challenge experiments except that it was adjusted to a final A660nm of 2.0.
# C. albicans ATCC 32354 [2] = assay: Survival after lethal airway (intranasal) challenge in immunosuppressed mice; assay type: in vivo; conditions: for ED50: Candida albicans, ATCC32354, ip, i.p. daily days 0-4, neutropenic mice, intranasal challenge, read-out: EC50 (survival, airway challenge)
# Excerpt: (§1) To examine the role of the protease under conditions in which the challenge dose of C. albicans first has to cross the airway epithelium before it can disseminate, the following procedure was developed. To both mimic the immunosuppressed patient state and increase susceptibility of the test animals to C. albicans, mice were rendered neutropenic by treatment with cyclophosphamide, and received concurrent ciprofloxacin treatment to block opportunistic infection by endogenous gram negative flora.
# (§2) Challenge inoculum was prepared by streaking Candida albicans (ATCC 32354) onto Sabouraud dextrose agar from a frozen glycerol stock and incubating overnight at 37° C. Five hours before challenge, the culture was re-streaked onto four Sabouraud dextrose agar slants and incubated (4 h. 37° C.). The culture was then washed from the agar slants with sterile saline, resuspended in fresh saline to achieve an A660nm of 0.2, and kept on ice until used. Fifty μl of a 10^-4 dilution of this challenge stock was plated to determine retrospectively the exact challenge dose in c.f.u. Female Swiss Webster mice (Charles River Breeding Laboratories, Inc., Wilmington, Mass., approx. 23 g, ten mice per group) received 125 mgKg^-1 cyclophosphamide i.p. in 0.2 ml of saline on days -5 and -3, 0, 2 and 4 of the study. On day 0, mice were anesthetized with 80 mgKg^-1 sodium pentobarbital i.p. and challenged intranasally with either 2.5×10^5 c.f.u. in 50 μl of saline or 50 μl of saline only (toxicity controls). On each of days 1 to 4 mice also received 50 mgKg^-1 Ciprofloxacin (i.p. in WFI/5% (w/v) glucose) to prevent bacterial infection in the immunocompromised mice. On days 0 to 4, groups of mice (n=10) received one of the following daily treatments (0.1 ml i.p.): saline, amphotericin B (0.1 to 1.0 mgKg^-1); and pepstatin A (0.06 to 6.0 mgKg^-1). Pepstatin A was dissolved in DMSO at 13.8 mgml^-1 and diluted 1:10 in saline for the 6 mgKg^-1 dose. Lower doses were diluted in normal saline serially from the 6 mgKg^-1 dose. Stock amphotericin B (5 mg/ml in WFI) was diluted in WFI containing 5% glucose. Treatment with drug on day zero was performed three hours prior to airway challenge with C. albicans. Survival was monitored for fifteen days following challenge. Toxicity controls were weighed daily over the duration of treatment. Animals from parallel groups (n=10) of mice were sacrificed at various stages and used to determine organ burdens and histopathology. Organ burdens were determined in parallel in 3 mice from parallel groups that were sacrificed on days 2, 4, and 17. Mice were anesthetized with sodium pentobarbital (80 mgKg^-1), bled by cardiac puncture, and then given a lethal dose of sodium pentobarbital. The kidneys, spleen, liver, and lungs were removed, weighed, and homogenized in 10 ml sterile PBS. Each organ homogenate (including heart blood) was serially diluted, plated on Sabauroud dextrose agar and incubated overnight at 37° C. Resulting colonies were counted to derive c.f.u./gram wet weight of organ.
# C. albicans ATCC 32354 [3] = assay: Growth of C. albicans in culture (A660nm); assay type: cell-based
# Experimental: To study the effects of pepstatin A on growth of C. albicans, 0.1 ml of an overnight C. albicans culture was used to inoculate 10 ml cultures of either 1) YCB/BSA, or 2) a YD medium (0.2% yeast extract, 2% glucose) that contained 40 mM ammonium chloride. Pepstatin A was included in the cultures at final concentrations ranging between 0 and 10 μM (administered from a 50 μM aqueous stock). Growth of cultures at 30° C. was monitored by following A660nm. The growth of ATCC 32354 in YCB/BSA was inhibited about 90% by 2 μM pepstatin A (table II). This effect of pepstatin was fungistatic as resuspension of arrested cells in fermentation medium devoid of pepstatin A restored cell growth. […] Since ammonium chloride both removes dependence on, and suppresses the production of the secretory acid proteases, the mechanism of pepstatin inhibition action is likely to involve protease inhibition.
# [4] = tested on: peak II secretory protease of C. albicans ATCC 32354; assay: Dns-ISEVNLDAEFR-amide cleavage by mono-Q peak II protease (HPLC, fluorimetric); assay type: biochemical
# Experimental: (§3) The proteases secreted by C. albicans ATCC 32354 also hydrolyzed the fluorescent peptide Dns-Ile-Ser-Glu-Val-Asn-Leu-Asp-Ala-Glu-Phe-Arg-amide (SEQ ID NO: 4), abbreviated Dns-ISEVNLDAEFR-amide. Aliquots of the protease-containing fractions recovered from mono-Q chromatography described in Example 1 (2 to 10 μl) were incubated with 30 μM final concentration of the fluorescent substrate Dns-ISEVNLDAEFR-amide at 37° C. in 60 μl 50 mM sodium citrate buffer of pH 4.4 for 15 minutes, after which reactions were terminated by addition of 50 μM pepstatin A in 33% v/v methanol to 10 μM final concentration, and set aside for HPLC analysis. […] Unconverted Dns-ISEVNLDAEFR-amide (RT=5.55 min) and fluorescent products eluting at 4.2 min (Dns-Ile-Ser-Glu-Val-Asn-Leu (SEQ ID NO: 5), and 3.0 min (unidentified), were resolved and detected fluorimetrically.
# (§4) The secretory aspartic proteases produced by other pathogenic C. albicans strains and Candida sp. are inhibitable by pepstatin A and are therefore of the aspartyl class. To determine if the peak I, II, or III protease activities secreted by ATCC 32354 were also of the aspartyl class, their susceptibility to inhibition by pepstatin A was determined. […]
# C. albicans [5] = assay: Control experiments with ciprofloxacin alone (data not shown); conditions: ciprofloxacin by itself
# Excerpt: as §1
# C. albicans ATCC 32354 [6] = assay: Formation of hyphae in culture (Gram stain, microscopy); assay type: cell-based; conditions: YCB/BSA, 48 hours, 2 μM and above
# Experimental: Aliquots of cultures were removed after 48 hours, heat fixed on slides, and Gram stained (VWR Scientific, Inc., Boston, Mass.).
# C. albicans ATCC 32354 [7] = assay: Organ burdens (c.f.u.) after intranasal challenge in immunosuppressed mice; assay type: in vivo; design: C. albicans, kidney / C. albicans, lungs: scale not given here
# Experimental: as §2
# [8] = tested on: peak III secretory protease of C. albicans ATCC 32354; assay: Dns-ISEVNLDAEFR-amide cleavage by mono-Q peak III protease (HPLC, fluorimetric); assay type: biochemical; conditions: peak III enzyme, read-out: I.C.50 Pepstatin
# Experimental: as §3, §4
# C. albicans ATCC 32354 [9] = assay: Histopathology of lung sections after airway challenge; assay type: in vivo, mice; conditions: 0.06 and 0.6 mg/Kg^-1
# Experimental: For histopathology, mice from above described groups (two mice per group) were sacrificed on days 2 and 4 by administration of a lethal dose of sodium pentobarbitol. The lungs, liver, kidneys, and spleen were removed intact, embedded in paraffin, sectioned (5 μm), and stained with ammoniacal silver to visualize the Candida. Slides were stained by immersing in 4% periodic acid for 5 minutes, rinsing in distilled water five times, then immersing in a solution of ammoniacal silver (0.1% silver nitrate, 0.02% lithium hydroxide monohydrate) that had been heated by microwave (420 W for 1 min). Slides were microwaved in this solution for one minute then allowed to remain in the hot solution for one more minute before rinsing four times in distilled water and toning in 0.2% gold chloride for thirty seconds. Slides were then rinsed twice in distilled water, placed in 2% sodium thiosulfate for thirty seconds, then rinsed three times and dehydrated through graded alcohols. Finally, slides were cleared in 3-4 changes of xylene and mounted with Permount.
# [10] = tested on: peak I secretory protease of C. albicans ATCC 32354; assay: Dns-ISEVNLDAEFR-amide cleavage by mono-Q peak I protease (HPLC, fluorimetric); assay type: biochemical; conditions: peak I enzyme
# Experimental: as §3, §4
# C. albicans [11] = conditions: administered prior to i.v. challenge with C. albicans; cited from earlier work
# [12] = 0.6 mg Kg^-1, 4 days post challenge
compound,measurement,setting,value
C[C@@H]1[C@H](O)[C@@H](C)/C=C/C=C/C=C/C=C/C=C/C=C/C=C/[C@H](O[C@@H]2O[C@H](C)[C@@H](O)[C@H](N)[C@@H]2O)C[C@@H]2O[C@](O)(C[C@@H](O)C[C@@H](O)[C@H](O)CC[C@@H](O)C[C@@H](O)CC(=O)O[C@H]1C)C[C@H](O)[C@H]2C(=O)O [amphotericin B],"survival rate after 14 days, i.v. challenge","C. albicans ATCC 32354 [1]; 1 mgKg^-1 i.p., 3 hr prior and days 1 to 5",70%
same,protection against lethal airway challenge,"C. albicans ATCC 32354 [2]; 1 mgKg^-1 i.p. daily days 0-4, first dose 3 h before challenge",complete protection
same,ED50,C. albicans ATCC 32354 [2],~0.1 mg/kg
"1{92S,4S,5S)-5-[(2S)-3-(tert-Butylsulphonyl)-2-(1-naphthylmethyl)propanoyl]-(2R)N-(tert-butoxycarbonyl)-2-amino-2-[2-(1,3-dithiolan-2-yl)]ethanoyl]amino-6-cyclohexyl-4-hydroxy-2-(1-methyl)ethyl-hexanoyl}-s-isoleucinyl-2-yridylamide [compound X]",effect on growth of C. albicans in YCB/BSA,C. albicans ATCC 32354 [3]; YCB/BSA,blocked growth
same,A660 nm,"C. albicans ATCC 32354 [3]; YCB/BSA, 168 hours in culture, 10 μM (no compound 3.13)",0.26
same,IC50,"[4]; peak II protease, read-out: I.C.50, in vitro activity of the peak II protease",0.11 µM
same,protection against lethal airway challenge,C. albicans ATCC 32354 [2]; 0.1 mgKg^-1,Complete protection
O=C(O)c1cn(C2CC2)c2cc(N3CCNCC3)c(F)cc2c1=O [ciprofloxacin],effect on C. albicans in vitro or in vivo,C. albicans [5],no effect
CC(C)CC(=O)N[C@H](C(=O)N[C@H](C(=O)N[C@@H](CC(C)C)[C@@H](O)CC(=O)N[C@@H](C)C(=O)N[C@@H](CC(C)C)[C@@H](O)CC(=O)O)C(C)C)C(C)C [pepstatin A] (Isovaleryl-VV[Sta]A[Sta]-OH),formation of hyphae in cultures,C. albicans ATCC 32354 [6],inhibited the formation of hyphae
same,"C. albicans, kidney","C. albicans ATCC 32354 [7]; 0.06 mg Kg^-1, 4 days post challenge (0 dose 39 ± 18.4)",0.67 ± 0.15 c. f. u. g^-1 homogenized tiss
same,"C. albicans, lungs","C. albicans ATCC 32354 [7]; 0.06 mg Kg^-1, 4 days post challenge (0 dose 4,540 ± 2,160)",0.58 ± 0.39 c. f. u. g^-1 homogenized tiss
same,"C. albicans, kidney",C. albicans ATCC 32354 [7]; [12],0.49 ± 0.22 c. f. u. g^-1 homogenized tiss
same,"C. albicans, lungs",C. albicans ATCC 32354 [7]; [12],0.13 ± 0.19 c. f. u. g^-1 homogenized tiss
same,c.f.u. recovered from the kidneys,C. albicans ATCC 32354 [7]; all doses,a small number of c.f.u.'s were recovered
same,c.f.u. remaining in the lung tissue,C. albicans ATCC 32354 [7]; intranasal challenge,dramatically reduced
same,dissemination to the spleen and liver,C. albicans ATCC 32354 [7]; intranasal challenge,completely blocked dissemination
same,IC50,[8]; product eluting at 3.0 min,0.029 µM
same,IC50,[8]; product eluting at 4.2 min,0.036 µM
same,inhibition at 2 µM,"C. albicans ATCC 32354 [3]; Candida albicans, ATCC32354, YCB/BSA, 2 μM",~90%
same,nature of growth effect (resuspension without inhibitor restored growth),C. albicans ATCC 32354 [3]; YCB/BSA,fungistatic
same,A660 nm,"C. albicans ATCC 32354 [3]; YCB/BSA, 145 hours in culture, 2.0 μM (control 1.97)",0.18
same,A660 nm,"C. albicans ATCC 32354 [3]; YCB/BSA, 145 hours in culture, 10.0 μM (control 1.97)",0.17
same,inhibitory effect on growth in YD containing ammonium chloride,"C. albicans ATCC 32354 [3]; YD + 40 mM ammonium chloride, up to 10 μM",no significant inhibitory effects
same,A660 nm,"C. albicans ATCC 32354 [3]; YD + NH4Cl, 145 hours in culture, 2.0 μM (control 2.97)",2.99
same,A660 nm,"C. albicans ATCC 32354 [3]; YD + NH4Cl, 145 hours in culture, 10.0 μM (control 2.97)",3.20
same,survival time post i.v. challenge,C. albicans ATCC 32354 [1]; 0.6 mgKg^-1 i.p.,did not survive past day two
same,"protective effect, classical i.v. challenge protocol","C. albicans ATCC 32354 [1]; 0.6 mgKg^-1 i.p., 3 hr prior and days 1 to 5",no protective effect
same,growth of C. albicans and hyphae formation in the lungs (histopathology),C. albicans ATCC 32354 [9],inhibited both the growth of C. albicans and hyphae formation
same,IC50,"[10]; product eluting at 3.0 min, 15 min pre-incubation, 1 hr reaction, pH 4.4, read-out: I.C.50 Pepstatin",0.009 µM
same,I.C.50 Pepstatin,"[10]; product eluting at 4.2 min, N. I. = no inhibition",N. I.
same,reduced mortality in a statistically significant fashion (neither/nor = did not),C. albicans [11],neither
same,IC50,"[4]; peak II enzyme, product eluting at 4.2 min, read-out: I.C.50 Pepstatin",0.028 µM
same,survival,"C. albicans ATCC 32354 [2]; 0.6 mgKg^-1 i.p. daily days 0-4, airway challenge",100%
same,ED50,C. albicans ATCC 32354 [2],~0.06 mg/kg
same,protective effect upon pretreating mice,"C. albicans ATCC 32354 [2]; airway challenge, dose-dependent, 0.06 to 0.6 mgKg^-1",strong protective effect
